The text below walks through data of US20260055089A1, “NOVEL SUBSTITUTED BENZOTHIOPHENE-6-CARBOXYLIC ACID DERIVATIVES, PROCESSES FOR THEIR PREPARATION AND THERAPEUTIC USES THEREOF” (SANOFI, priority 2022, published 2026).

The experiment concerns the target T1, ERα (Homo sapiens, UniProt P03372).
T1 construct: host or cells: MCF7
T1 sequence (P03372 1-595): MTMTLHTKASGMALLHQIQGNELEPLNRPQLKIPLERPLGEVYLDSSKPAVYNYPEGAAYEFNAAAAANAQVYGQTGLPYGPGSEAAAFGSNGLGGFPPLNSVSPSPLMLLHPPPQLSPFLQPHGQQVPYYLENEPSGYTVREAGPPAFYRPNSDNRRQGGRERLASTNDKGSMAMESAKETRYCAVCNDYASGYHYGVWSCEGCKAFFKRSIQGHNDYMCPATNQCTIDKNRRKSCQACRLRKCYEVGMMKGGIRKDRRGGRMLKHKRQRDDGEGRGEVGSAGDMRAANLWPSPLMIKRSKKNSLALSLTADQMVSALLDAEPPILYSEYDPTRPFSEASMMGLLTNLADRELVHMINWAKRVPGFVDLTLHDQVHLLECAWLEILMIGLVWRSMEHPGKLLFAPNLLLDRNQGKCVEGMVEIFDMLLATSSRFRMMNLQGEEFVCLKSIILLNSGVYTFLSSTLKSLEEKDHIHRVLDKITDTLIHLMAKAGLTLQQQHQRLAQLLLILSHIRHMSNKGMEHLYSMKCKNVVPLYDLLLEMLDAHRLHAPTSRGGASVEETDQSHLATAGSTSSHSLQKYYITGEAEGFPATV
As to the kind of experiment: Estrogen receptor degradation activity: breast cancer cell ERα in cell western assay. The format is cell-based. The conditions noted are these: MCF7 cells; for % Degradation At 0.3 μM: 4 hours, relative to fulvestrant 0.1 μM positive control; for DC50: 4 hours post compound addition, concentration which degrades 50% of the estrogen receptor, read-out: Degradation IC50. The procedure:
Test: Estrogen Receptor Degradation Activity
Said test involves measuring the in vitro degradation activity of the compounds of the table 1.
The measurements of the degradation activities were made using a breast cancer cell ERα in cell western assay as described hereunder.
MCF7 cells (ATCC) were seeded in 384 wells microplate (collagen coated) at a concentration of 10000 cells/30 μL per well in red phenol free MEM alpha medium (invitrogen) containing 5% charcoal dextran striped FBS. The following day, 9 points serial 1:5 dilution of each compound was added to the cells in 2.5 μL at final concentrations ranging from 0.3-0.0000018 μM (in table 2), or 0.1 μM for fulvestrant (using as positive control). At 4 hours post compound addition the cells were fixed by adding 25 μL of formalin (final concentration 5% formalin containing 0.1% triton) for 10 minutes at RT and then washed twice with PBS. Then, 50 μL of LI-COR blocking buffer containing 0.1% Triton was added to plate for 30 minutes at RT. LI-COR blocking buffer was removed and cells were incubated overnight at cold room with 50 μL anti-ER rabbit monoclonal antibody (Thermo scientific MA1-39540) diluted at 1:1000 in LI-COR blocking buffer containing 0.1% tween-20. Wells which were treated with blocking buffer but no antibody were used as background control. Wells were washed twice with PBS (0.1% tween-20) and incubated at 37° C. for 60 minutes in LI-COR (0.1% tween-20) containing goat anti-rabbit antibody Alexa 488 (1:1000) and Syto-64 a DNA dye (2 μM final concentration). Cells were then washed 3 times in PBS and scanned in ACUMEN explorer (TTP-Labtech). Integrated intensities in the green fluorescence and red fluorescence were measured to determine the levels of ERα and DNA respectively.
The degradation activity with respect to estrogen receptors in this test is given by the concentration which degrades 50% of the estrogen receptor (or ICso) in nM.
The % of ERα levels decrease were determined as follows: % inhibition=100*(1−(sample−fulvestrant:DMSO−fulvestrant)).

With `CC(F)(F)c1cc(F)ccc1-c1sc2cc(C(=O)O)ccc2c1Oc1ccc(NC2CN(CCCF)C2)cc1.Cl` [Compound 1, 2-(2-(1,1-difluoroethyl)-4-fluorophenyl)-3-(4-((1-(3-fluoropropyl)azetidin-3-yl)amino)phenoxy)benzo[b]thiophene-6-carboxylic acid, hydrochloride], the “% Degradation At 0.3 μM” value is recorded as 92% and the DC50 came to 2 nM.

In the case of `CC(F)(F)c1cc(F)ccc1-c1sc2cc(C(=O)O)ccc2c1Oc1ccc(OC2CN(CCCF)C2)cc1` [Compound 2, 2-(2-(1,1-difluoroethyl)-4-fluorophenyl)-3-(4-((1-(3-fluoropropyl)azetidin-3-yl)oxy)phenoxy)benzo[b]thiophene-6-carboxylic acid], the “% Degradation At 0.3 μM” value is 93% and the DC50 amounted to 0.9 nM.

As to `CC(F)(F)c1cc(F)ccc1-c1sc2cc(C(=O)O)ccc2c1Oc1ccc(O[C@H]2CCN(CCCF)C2)cc1` [Compound 3, (S)-2-(2-(1,1-difluoroethyl)-4-fluorophenyl)-3-(4-((1-(3-fluoropropyl)pyrrolidin-3-yl)oxy)phenoxy)benzo[b]thiophene-6-carboxylic acid], the “% Degradation At 0.3 μM” value is 85% and the DC50 was determined as 5 nM.
